From patent publication US20060094721A9, “Sulfonamides as potassium channel blockers” (Icagen, Inc., priority 2002, published 2006)

Each molecule was assayed against T1, intermediate conductance, calcium activated potassium channel (Gardos channel) in red blood cells (Homo sapiens, UniProt O15554) (assay: 86Rb flux assay for inhibition of the Gardos channel in red blood cells (Example 4)). Settings: CaCl2 and A23187.
T1 construct: endogenous in cells; host or cells: red blood cells from heparinized whole blood
Type: cell-based
Method: Activities for selected compounds of the invention were determined using the assay set forth in Example 4, and are presented in Table 1.
Example 4 illustrates the use of a rubidium flux assay to determine the activity of the compounds of the invention.
Example 4 describes a bioassay for measuring the inhibition of a calcium activated potassium channel, the Gardos channel, in red blood cells by the compounds of the invention.
Heparinized whole blood was washed three times with Modified Flux Buffer (MFB: 140 mM NaCl; 5 mM KCl; 10 mM Tris; 0.1 mM EGTA; pH=7.4). Red blood cells (“RBCs”) at an approximate 10% hematocrit. Washed cells were then incubated for 3 hours with ^86Rb (5 μCi/mL). After this incubation period, the RBCs were washed three times with cold MFB. Washed ^86Rb loaded RBCs were then incubated with a test compound of the invention for 10 minutes. ^86Rb flux was then initiated by the addition of 10 μL/mL of a MFB solution containing 10 mM CaCl2 and 100 μM A23187, a calcium ionophore. This yielded a final concentration of 100 μM CaCl2 and […] A23187 n the incubation medium. Cells were incubated for 10 minutes, spun down and the supernatant was removed. Samples were counted in a Wallace Microbeta liquid scintillation counter by Cerenkov emission. Total RBC ^86Rb content was determined by lysing the RBCs with water and then precipitating protein using a 50:50 mixture of ethanol:chloroform. After a 20 minute microfuge spin, the aqueous and organic layers separated and the aqueous layer was removed and counted. Efflux is expressed as a percentage of the initial cell content of ^86Rb.

Row | Activity (relative potencies in the intermediate conductance, calcium activated potassium channel blocker assay, IC50 class) | Compound
1 | + (+ Represents 10 μM < IC50 < 2 μM) | COC(=O)c1ccccc1CSc1cccc(C(F)(F)F)c1 [Compound 96, 2-(3-Trifluoromethyl-phenylsulfanylmethyl)-benzoic Acid Methyl Ester]
2 | ++ (++ represents 2 μM < IC50 < 0.5 μM) | COC(=O)c1ccccc1CS(=O)(=O)c1cccc(C(F)(F)F)c1 [Compound 95, 2-(3-Trifluoromethyl-benzenesulfonylmethyl)-benzoic Acid Methyl Ester]
3 | ++ (++ represents 2 μM < IC50 < 0.5 μM) | COc1noc(-c2ccccc2NS(=O)(=O)c2cccc(C(F)(F)F)c2)n1 [Compound 83, N-[2-(3-methoxy-[1,2,4]oxadiazol-5-yl)-phenyl]-3-trifluoromethyl-benzenesulfonamide]

The remaining lines, values behind:

Row | Compound | Activity (relative potencies in the intermediate conductance, calcium activated potassium channel blocker assay, IC50 class)
4 | COC(=O)C1=C(NS(=O)(=O)c2cccc(C(F)(F)F)c2)CCCC1 [Compound 31, 2-(3-trifluoromethyl-benzenesulfonylamino)-cyclohex-1-enecarboxylic Acid Methyl Ester] | ++ (++ represents 2 μM < IC50 < 0.5 μM)
5 | O=S(=O)(Nc1ccccc1-c1ncco1)c1cccc(C(F)(F)F)c1 [Compound 74, N-(2-Oxazol-2-yl-phenyl)-3-trifluoromethyl-benzenesulfonamide] | ++ (++ represents 2 μM < IC50 < 0.5 μM)
6 | Cc1noc(-c2ccccc2NS(=O)(=O)c2cccc(C(F)(F)F)c2)n1 [Compound 82, N-[2-(3-methyl-[1,2,4]oxadiazol-5-yl)-phenyl]-3-trifluoromethyl-benzenesulfonamide] | ++ (++ represents 2 μM < IC50 < 0.5 μM)

Same assay, conditions: CaCl2 and A23187, read-out: Activity (relative potencies in the intermediate conductance, calcium activated potassium channel blocker assay, IC50 class)

Row | IC50 | Compound
7 | < 500 nM | COc1cc(NS(=O)(=O)c2cccc(C(F)(F)F)c2)c(-c2nc(C)no2)cc1OC [Compound 41, N-[4,5-dimethoxy-2-(3-methyl-[1,2,4]oxadiazol-5-yl)-phenyl]-3-trifluoromethyl-benzenesulfonamide]
8 | < 500 nM | O=S(=O)(Nc1ccccc1-c1ccco1)c1cccc(C(F)(F)F)c1 [Compound 76, N-(2-furan-2-yl-phenyl)-3-trifluoromethyl-benzenesulfonamide]
9 | < 500 nM | COc1ccc(NS(=O)(=O)c2cccc(C(F)(F)F)c2)c(-c2ncco2)c1 [Compound 40, N-(4-Methoxy-2-oxazol-2-yl-phenyl)-3-trifluoromethyl-benzenesulfonamide]
